We go through 79 compounds from article PMC12040169 (PLOS Biology, 2025).

The term viability denotes a read-out of living cells in per cent, often relative to untreated cells.

Each structure is given as a SMILES string.

A short description of the first data set: in vitro. The following applies: human, hela cells, % viability.
For `COc1cccc(NC(=O)CC(CN2CCC(O)CC2)C(=O)O)c1` (stereo not shown) [CBK286842], the viability at 28.5 h, 10 µM worked out at 93%.

`O=C(O)C1CCN(C(=O)CCC2CCCCC2)CC1` [CBK286804]: the viability at 28.5 h, 10 µM is 89.3%. As to `Cn1c(=O)c(C(N)=O)c(O)c2ccccc21` [CBK027440], the viability at 28.5 h, 10 µM was 78.6%. `O=C(CN1CCCCC1Cn1cccn1)NCc1ccccn1` (stereo not shown) [CBK306146]: the viability at 28.5 h, 10 µM amounted to 84%. With `Cc1cc(NC(=O)CCCN2C(=O)c3cccc4cccc(c34)C2=O)n(-c2ccccc2)n1` [CBK265874], the viability at 28.5 h, 10 µM is 109%. Take `CC(C)c1ccc(S(=O)(=O)NC(CC(=O)O)c2ccccc2)cc1` (stereo not shown) [CBK266217]: the viability at 28.5 h, 10 µM worked out at 102%. On the same count and under the same terms, the value for `Cc1ccc(N(CC(=O)NCC2CCCO2)S(=O)(=O)c2ccc(Cl)cc2)cc1` (stereo not shown) [CBK269039] was 104%; that for `CN(C)CCNC(=O)c1ccc(COc2ccc(Cl)cc2Cl)cc1` [CBK265878] was 90.9%.

`CN(Cc1ccccc1)C1(O)C(=O)Nc2ccc(Cl)cc21` (stereo not shown) [CBK269703]: the viability at 28.5 h, 10 µM is 95.9%. With `CCc1nc(C)c(C(C)N(C)CC(=O)NCc2ccco2)s1` (stereo not shown) [CBK305203], the viability at 28.5 h, 10 µM was 86.6%.

For `Cc1ccc(C(=O)NCCc2ccc(S(N)(=O)=O)cc2)c(N2CCN(C(=O)c3ccco3)CC2)n1` [CBK076345], the viability at 28.5 h, 10 µM came to 89%. For `Fc1ccc(OCCCCCN2CCC3(CC2)OCCc2c3[nH]c3ccccc23)cc1` [CBK113516T], the viability at 28.5 h, 10 µM amounted to 2.48%.

Regarding `C[C@@H]1CN(C)CCN1c1nccnc1OCCOc1cccnc1OCCCCCN(C)C` [CBK051566], the viability at 28.5 h, 10 µM came to 103%. As to `CC(C)(C)SCCOC(=O)C1CC(=O)N(Cc2ccccn2)C1` (stereo not shown) [CBK303991], the viability at 28.5 h, 10 µM turned out to be 90.8%.

In the case of `c1ccc2c(-c3cn4ccnc4c(Nc4ccc5cn[nH]c5c4)n3)cccc2c1` [CBK066346], the viability at 28.5 h, 10 µM worked out at 88%. For the compound `Cc1cnn(C2CCN(C(=O)CC3OCCc4ccccc43)CC2)c1` (stereo not shown) [CBK304186], the viability at 28.5 h, 10 µM came out at 93.6%. Turning to `O=C(O)c1cccc(-c2ccc(/C=C3\SC(=S)N(Cc4ccco4)C3=O)o2)c1` [CBK265726], the viability at 28.5 h, 10 µM is 98.3%. As for `O=C(CCc1ccc(F)cc1)N1CCC(CC(=O)N2CCN(c3ccccc3)CC2)CC1` [CBK286245], the viability at 28.5 h, 10 µM turned out to be 108%. On to `Cn1nnnc1Sc1cc(=O)n(C)c(=O)n1C` [CBK011072], for which the viability at 28.5 h, 10 µM was found to be 114%. With `CC(C)C(CNCc1cncnc1)c1ccnn1C` (stereo not shown) [CBK304190], the viability at 28.5 h, 10 µM was 79.9%. As to `COc1cc(CN2CCCC3(CCN(C(=O)Cc4c[nH]c5ccccc45)C3)C2)cc(OC)c1OC` (stereo not shown) [CBK132027], the viability at 28.5 h, 10 µM is 99.5%.

Take `O=C(NC[C@H]1CC[C@H](c2nnc(-c3ccsc3)o2)CC1)C1CCC1` [CBK283363]: the viability at 28.5 h, 10 µM was determined as 87.1%. `CC1(C)CC(N(Cc2c[nH]cn2)Cc2ccccc2F)CC(C)(C)N1` [CBK282579]: the viability at 28.5 h, 10 µM turned out to be 92.9%.

Consider `O=C(NCc1cccnc1)c1ccc(-c2cccc(Cl)c2Cl)o1` [CBK112211], for which the viability at 28.5 h, 10 µM stood at 102%.

Take `CCOC(=O)c1c(C)n(-c2ccccc2)c2ccc(O)c(CN(C)C)c12` [CBK261593C]: the viability at 28.5 h, 10 µM was 91%. Consider `Cc1cc(C(=O)NC2CCCC2)n[nH]1` [CBK200240], for which the viability at 28.5 h, 10 µM was determined as 94.2%. On to `CC1(C(=O)NC2CCN(Cc3cccc(F)c3)CC2)CCCO1` (stereo not shown) [CBK282658], for which the viability at 28.5 h, 10 µM was determined as 91.6%.

Regarding `O=C1NCC(C(=O)N2CCC3(CC2)CC(=O)c2cc(Br)ccc2O3)N1` (stereo not shown) [CBK156475], the viability at 28.5 h, 10 µM came to 87.7%. As for `O=C(Cc1ccc(Cl)cc1)NCCc1c[nH]c2ccccc12` [CBK269787], the viability at 28.5 h, 10 µM is 87%. Turning to `FC(F)(F)c1ccc(OCCCc2ccncc2)nc1` [CBK115791], the viability at 28.5 h, 10 µM came to 101%. For the compound `CCCNC(=O)NC1CC(C)(C)Cc2nc(N3CCOCC3)ncc21` (stereo not shown) [CBK307232], the viability at 28.5 h, 10 µM was 85.7%. Consider `CCOC(=O)/C(C#N)=C(\O)c1ccc(N2C(=O)c3ccc(C(=O)O)cc3C2=O)cc1` [CBK262683], for which the viability at 28.5 h, 10 µM was 91.8%. Turning to `O=S(=O)(Nc1cccc2[nH]ccc12)c1sc(Cl)cc1Br` [CBK153552], the viability at 28.5 h, 10 µM was 69%.

In the case of `CN(C)C(c1ccc2c(c1)OCO2)c1nnnn1C1CCCCC1` (stereo not shown) [CBK020620], the viability at 28.5 h, 10 µM is 103%. As to `CC1CCCC(C)N1S(=O)(=O)c1ccc(NS(=O)(=O)c2cccc(C(=O)O)c2)cc1` (stereo not shown) [CBK296944], the viability at 28.5 h, 10 µM came out at 94.6%. Turning to `Nc1ncnc2c1ccn2[C@H]1C[C@@H](O)[C@@H](CO)O1` [CBK201258], the viability at 28.5 h, 10 µM is 95.5%. The same measure, in the same setting: with `CN(Cc1nnc(-c2ccc(C(C)(C)C)cc2)o1)C(=O)C1CCCO1` (stereo not shown) [CBK307597] the figure was 106%; with `CC(C)c1ccc(/C=C/C(=O)NCCN2CCOCC2)cc1` [CBK149631], 92.6%. As for `Cc1cccc(N2NC(=O)/C(=C/c3cccn3-c3ccc(S(N)(=O)=O)cc3)C2=O)c1` [CBK265660], the viability at 28.5 h, 10 µM came to 93.9%.

As for `COc1ccc([C@H]2CN(C(C)=O)[C@@H]3CCN(CC4CC4)C[C@H]23)cc1` [CBK285502], the viability at 28.5 h, 10 µM turned out to be 98.1%. The same measure, in the same setting: the value for `CN1CCN(NC(=O)CN(C)S(=O)(=O)c2cc(Cl)ccc2Cl)CC1` [CBK267366] was 94.2%. Consider `COC(=O)C1(Cc2ccccc2-c2ccncc2)CCOCC1` [CBK284709], for which the viability at 28.5 h, 10 µM was found to be 95.2%. Same read-out and setting: the value for `O=C1CC2(CCN(S(=O)(=O)Cc3ccc(Cl)cc3)CC2)CN1` [CBK283355] was 102%; that for `COc1cccc(CNCCN2CCOCC2)c1O` [CBK278183C] was 90.2%; that for `CCc1cc2c(=O)c(-c3cnn(-c4ccccc4)c3)c(C(F)(F)F)oc2c(CN(C)C)c1O` [CBK264530] was 90.9%. On the same count and under the same terms, the value for `COC[C@@H]1CCCN1S(=O)(=O)c1cccs1` [CBK045239] was 96%. For `COc1ccc(-n2c(SCCCN3C(=O)c4cccc5cccc(c45)C3=O)nnc2-c2ccncc2)cc1` [CBK269123], the viability at 28.5 h, 10 µM came out at 94.2%.

For `CCN(CC)CCN1CCN(c2cncc(-c3cccc(N)c3)n2)CC1` [CBK065751], the viability at 28.5 h, 10 µM was determined as 97.2%. Regarding `CSc1nnc(-c2ccccc2O)n1CCc1ccccc1` [CBK076668], the viability at 28.5 h, 10 µM amounted to 96.8%.

With `COc1cc(/C=N/NC(=O)CSc2n[nH]c(=O)[nH]c2=O)ccc1O` [CBK263513], the viability at 28.5 h, 10 µM was determined as 88.7%.

Turning to `O=C(CC1(C(=O)O)CCCC1)NC1CCS(=O)(=O)C1` (stereo not shown) [CBK286855], the viability at 28.5 h, 10 µM came out at 92.3%. Take `CCCCC(c1cccnc1)N(C)C(=O)c1cnc(C)c(C)c1` (stereo not shown) [CBK307121]: the viability at 28.5 h, 10 µM stood at 103%. Consider `Cn1cc(C2CCCCN2C(=O)c2cccc(C#N)c2)cn1` (stereo not shown) [CBK304611], for which the viability at 28.5 h, 10 µM was determined as 87.9%.

Consider `OCCN1CCN(Cc2nc(O)c3ccccc3n2)CC1` [CBK266089], for which the viability at 28.5 h, 10 µM turned out to be 98.5%.

Regarding `CC1=CCC2C(=O)N(c3ccccc3)C(=O)C2C1` (stereo not shown) [CBK086490], the viability at 28.5 h, 10 µM stood at 84.1%. For `COc1cc(C(C)=O)ccc1OCCCN1CCC(O)(C(=O)c2ccc(F)cc2)CC1` [CBK025271C], the viability at 28.5 h, 10 µM was determined as 85.8%.

In the case of `CC1(CCc2ccccc2)NC(=O)N(CC(=O)c2ccc(-c3ccccc3)cc2)C1=O` (stereo not shown) [CBK297114], the viability at 28.5 h, 10 µM worked out at 107%. `COc1cccc(-c2nnn(CC(=O)O)n2)c1` [CBK068202]: the viability at 28.5 h, 10 µM came out at 94.9%. As to `CCC(CO)Nc1cncc(-c2cc(OC)c(OC)c(OC)c2)n1` (stereo not shown) [CBK037882], the viability at 28.5 h, 10 µM worked out at 98.9%. As for `O=C(Cc1cccc2ccccc12)Nc1nnc(C2=COCCO2)o1` [CBK287414], the viability at 28.5 h, 10 µM was determined as 86.6%. Turning to `CC(C)(C)C(=O)CN1CCC2(CC1)OCCc1c2[nH]c2ccc(F)cc12` [CBK040237], the viability at 28.5 h, 10 µM came to 95.8%. As to `O=C(Nc1cccc(Cl)c1Cl)c1cnc2n(c1=O)CCS2` [CBK287380], the viability at 28.5 h, 10 µM came to 95.1%.

On to `O=C(CNC(=O)c1cccc(Cl)c1)N/N=C/C=C/c1ccccc1` [CBK261947], for which the viability at 28.5 h, 10 µM came out at 90.4%.

For `Cc1ccc(N(CC(=O)Nc2ccccc2F)S(=O)(=O)c2ccc(F)cc2)cc1` [CBK263333], the viability at 28.5 h, 10 µM amounted to 91.9%. With `O=C1CCC(=O)N1CCOc1nccnc1N1CCN(CC2CC2)CC1` [CBK084305], the viability at 28.5 h, 10 µM stood at 93.9%. As for `O=C(OCc1ccccc1)N1CCC(C(=O)N(CCc2ccccc2)Cc2ccccc2)CC1` [CBK171978], the viability at 28.5 h, 10 µM was 92.5%.

Regarding `CCCCCOc1ccc(Nc2cc(-c3ccccc3N(C)C)ncn2)cc1` [CBK090890], the viability at 28.5 h, 10 µM worked out at 81.9%. Same read-out and setting: the value for `Cn1c(CN2CCN(c3ccc(C#N)cc3)CC2)nnc1[C@H]1C[C@@H](N)C1` [CBK306985] was 109%; that for `CCOc1ccc(N2C(=O)CC(N3CCN(CCc4ccccn4)CC3)C2=O)cc1` (stereo not shown) [CBK270149] was 95.8%. With `CCOC(=O)C1CCN(Cc2c(O)c3ccccc3oc2=O)CC1` [CBK266035], the viability at 28.5 h, 10 µM amounted to 70.6%. In the case of `Cc1ccnc2nc(C(=O)OC(C)C(=O)N3CCCCCC3)nn12` (stereo not shown) [CBK306155], the viability at 28.5 h, 10 µM stood at 102%. Consider `O=C(Cc1n[nH]c(=O)[nH]c1=O)N/N=C/c1cccc(Br)c1` [CBK263086], for which the viability at 28.5 h, 10 µM was 83%. For the compound `CC1CCCN(C(=O)C2C3CCC4(CC(=O)c5ccccc5O4)C32)C1` (stereo not shown) [CBK284932], the viability at 28.5 h, 10 µM is 89.8%.

For `O=C(O)/C=C/c1ccccc1OCC(=O)NC1CCCCC1` [CBK286900], the viability at 28.5 h, 10 µM was 99.8%.

`O=C(CCC1CCCCC1)Nc1c[nH]c(=O)[nH]c1=O` [CBK287867]: the viability at 28.5 h, 10 µM worked out at 90.4%. With `O=C1NC2CCCCC2NC1CC(=O)N1CCN(Cc2ccccc2)CC1` (stereo not shown) [CBK269484], the viability at 28.5 h, 10 µM was 92.5%.

Still in this data set, the particulars now being: human, hela cells, % viability, bulk resorufin, single well.
In the case of `O=C(CCC1C(=O)NC(=O)NC1=O)Nc1ccc(Oc2ccc(F)cc2)cc1` [CBK285712], the viability at 28.5 h, 10 µM amounted to 88%. As to `CS(=O)(=O)c1ccc(-c2ccc3c(c2)COC2(CCN(C(=O)CC4CCCCC4)CC2)O3)cn1` [CBK160596], the viability at 28.5 h, 10 µM amounted to 93.3%. Same read-out and setting: the value for `O=C1NC(=O)C(CCc2ccccn2)(Cc2ccc3c(c2)OCO3)C(=O)N1CCc1ccccc1` (stereo not shown) [CBK266392] was 98.7%.
